Tests used:
GCLM = experiment: Human oxidative stress RT2 Profiler PCR array in HGEPp cells: GCLM; format: cell-based; conditions: 100 μg/ml, 24 h, RT-PCR ΔΔCt
Protocol: (§1) RT-PCR was performed on an iCycler.

PTGS1 = experiment: Human oxidative stress RT2 Profiler PCR array in HGEPp cells: PTGS1; format: cell-based; conditions: 100 μg/ml, 24 h, RT-PCR ΔΔCt
Protocol: as §1

UCP2 = experiment: Human oxidative stress RT2 Profiler PCR array in HGEPp cells: UCP2; format: cell-based; conditions: 100 μg/ml, 24 h, RT-PCR ΔΔCt
Protocol: as §1

GPX1 = experiment: Human oxidative stress RT2 Profiler PCR array in HGEPp cells: GPX1; format: cell-based; conditions: 100 μg/ml, 24 h, RT-PCR ΔΔCt
Protocol: as §1

PRDX2 = experiment: Human oxidative stress RT2 Profiler PCR array in HGEPp cells: PRDX2; conditions: 100 μg/ml, 24 h, RT-PCR ΔΔCt
Protocol: (§2) Pooled primary HGEPp cells were propagated in CnT-Prime epithelial culture medium provided by CellnTec on 100 mm petri dishes coated with 30 mg/ml Type I rat tail collagen (BD Biosciences) diluted in Dulbecco's phosphate-buffered saline (DPBS). HGEPp cells were grown in 12×60 mm Nunc™ Cell Culture dishes at a 2.5×10^4 cells/cm2 density concentration.
(§3) All dosing solutions contained 0.3% of DMSO which is well below the maximum tolerated DMSO percent of 0.8% for HGEPp cells.
(§4) The cDNA from above was mixed with the RT2 SYBR Green fluor Mastermix and aliquoted into the wells of the RT2 Profiler PCR Array. RT-PCR was performed on an iCycler. Gene expression was compared using Ct values and the results were calculated using ΔΔ Ct method with normalization to the average expression levels of the five common genes (ACTB, B2M, GAPDH, HPRT, and RPL13A).

SOD1 = experiment: Human oxidative stress RT2 Profiler PCR array in HGEPp cells: SOD1; format: cell-based; conditions: 100 μg/ml, 24 h, RT-PCR ΔΔCt
Protocol: as §1

GTF2i = experiment: Human oxidative stress RT2 Profiler PCR array in HGEPp cells: GTF2i; format: cell-based; conditions: 100 μg/ml, 24 h, RT-PCR ΔΔCt
Protocol: as §1

MPO = experiment: Human oxidative stress RT2 Profiler PCR array in HGEPp cells: MPO; conditions: 100 μg/ml, 24 h, RT-PCR ΔΔCt
Protocol: as §2, §3, §4

GSTP1 = experiment: Human oxidative stress RT2 Profiler PCR array in HGEPp cells: GSTP1; format: cell-based; conditions: 100 μg/ml, 24 h, RT-PCR ΔΔCt
Protocol: as §1

HGEPp cells = experiment: ROS production in H2O2-induced oxidatively stressed HGEPp cells; conditions: HGEPp cells pretreated 24 hrs at 100 μg/mL, then 0.3 mM H2O2 for 4 h; positive control 139%
GPX4 = experiment: Human oxidative stress RT2 Profiler PCR array in HGEPp cells: GPX4; conditions: 100 μg/ml, 24 h, RT-PCR ΔΔCt
Protocol: as §2, §3, §4

GCLC = experiment: Human oxidative stress RT2 Profiler PCR array in HGEPp cells: GCLC; format: cell-based; conditions: 100 μg/ml, 24 h, RT-PCR ΔΔCt
Protocol: as §1

NQO1 = experiment: Human oxidative stress RT2 Profiler PCR array in HGEPp cells: NQO1; format: cell-based; conditions: 100 μg/ml, 24 h, RT-PCR ΔΔCt
Protocol: as §1

ALOX12 = experiment: Human oxidative stress RT2 Profiler PCR array in HGEPp cells: ALOX12; format: cell-based; conditions: 100 μg/ml, 24 h, RT-PCR ΔΔCt
Protocol: as §1

Compound | GCLM up regulation relative fold change (GCLM) | PTGS1 down regulation relative fold change (PTGS1) [fold] | UCP2 down regulation relative fold change (UCP2) [fold] | GPX1 up regulation relative fold change (GPX1) [fold] | PRDX2 down regulation relative fold change (PRDX2) [fold] | SOD1 up regulation relative fold change (SOD1) | GTF2i down regulation relative fold change (GTF2i) [fold] | MPO up regulation relative fold change (MPO) [fold] | GSTP1 up regulation relative fold change (GSTP1) | ROS level (optical density, Normal = 100% baseline) (HGEPp cells) [%] | GPX4 up regulation relative fold change (GPX4) [fold] | GCLC up regulation relative fold change (GCLC) | NQO1 up regulation relative fold change (NQO1) | ALOX12 up regulation relative fold change (ALOX12) [fold] | other results
Cc1c(-c2cnccn2)ssc1=S.Cl [Example 1, hydrochloride complex of oltipraz] | 2.33 fold | 0.28 | 0.26 | 4.81 | 0.31 | 3.86 fold | 0.33 | 3.22 | 2.77 fold | 128 | 2.86 | 3.35 fold | 3.14 fold | 6.38 | 
diethyl dithiophosphate complex of oltipraz [Example 7] | 3.00 fold | 0.21 | 0.17 | 4.72 | 0.28 | 4.85 fold | 0.29 | 3.42 | 3.13 fold | 117 | 2.99 | 4.41 fold | 3.93 fold | 6.38 | 
dimethyl phosphate complex of N-methyl oltipraz [Example 9] | significantly higher up-regulation | 0.21 | 0.15 | 4.89 | 0.27 | significantly higher up-regulation | 0.28 | 3.41 | significantly higher up-regulation | 112 | 2.93 | significantly higher up-regulation | significantly higher up-regulation | 6.43 | GCLM up regulation relative fold change (GCLM; listed as Ex. 9): 3.15 fold; SOD1 up regulation relative fold change (SOD1; listed as Ex. 9): 5.22 fold; GSTP1 up regulation relative fold change (GSTP1; listed as Ex. 9): 3.16 fold; GCLC up regulation relative fold change (GCLC; listed as Ex. 9): 4.60 fold; NQO1 up regulation relative fold change (NQO1; listed as Ex. 9): 4.24 fold
Diethyl Thiophosphate Complex of Oltipraz [Example 8] | 3.02 fold | 0.23 | 0.14 | 4.81 | 0.28 | 4.86 fold | 0.29 | 3.47 | 3.08 fold | 115 | 3.02 | 4.39 fold | 3.92 fold | 6.41 | 
Cc1c(-c2cncc[n+]2OC2=CC(=O)OC2=O)ssc1=S [Example 2, hydroxymaleate anhydride complex of oltipraz] | 3.01 fold | 0.23 | 0.15 | 4.8 | 0.26 | 5.13 fold | 0.26 | 3.21 | 3.07 fold | 116 | 2.84 | 4.52 fold | 4.07 fold | 6.46 | 
benzoyl chloride complex of oltipraz [Example 6] | 2.25 fold | 0.28 | 0.28 | 4.43 | 0.31 | 3.92 fold | 0.36 | 3.05 | 2.74 fold | 131 | 2.91 | 3.31 fold | 3.17 fold | 5.93 | 
Cc1c(-c2cnccn2)ssc1=S.O=S(=O)(O)CCO [Example 10, isethionic acid complex of oltipraz] | significantly higher up-regulation | 0.22 | 0.16 | 4.86 | 0.28 | significantly higher up-regulation | 0.31 | 3.39 | significantly higher up-regulation | 113 | 2.79 | significantly higher up-regulation | significantly higher up-regulation | 6.48 | GCLM up regulation relative fold change (GCLM; listed as Ex. 10): 3.11 fold; SOD1 up regulation relative fold change (SOD1; listed as Ex. 10): 5.23 fold; GSTP1 up regulation relative fold change (GSTP1; listed as Ex. 10): 3.18 fold; GCLC up regulation relative fold change (GCLC; listed as Ex. 10): 4.52 fold; NQO1 up regulation relative fold change (NQO1; listed as Ex. 10): 4.26 fold
methyl iodide complex of oltipraz [Example 5] | 2.27 fold | 0.28 | 0.29 | 4.98 | 0.32 | 3.89 fold | 0.33 | 3.18 | 2.90 fold | 134 | 2.85 | 3.38 fold | 3.15 fold | 6.04 | 
acetyl chloride complex of oltipraz [Example 3] | 2.38 fold | 0.29 | 0.26 | 4.76 | 0.33 | 4.24 fold | 0.32 | 3.10 | 2.87 fold | 129 | 2.83 | 3.27 fold | 3.36 fold | 6.33 | 
thiobenzoic acid complex of oltipraz [Example 11] | 3.08 fold | 0.22 | 0.15 | 4.82 | 0.27 | 4.96 fold | 0.29 | 3.44 | 3.07 fold | 116 | 2.94 | 4.46 fold | 4.09 fold | 6.39 | 
n-butyl chloride complex of oltipraz [Example 4] | 2.38 fold | 0.27 | 0.25 | 4.80 | 0.32 | 4.15 fold | 0.35 | 3.20 | 2.88 fold | 128 | 2.96 | 3.35 fold | 3.34 fold | 5.82 | 
